Where two headings read alike, the source gives them in different places. A value given as a limit tells only on which side of the number the result lay.

The target of assay [1] is T1, full length GAK protein N-terminally fused with NanoLuc luciferase (Homo sapiens, UniProt O14976).
T1 sequence (O14976 2-1311): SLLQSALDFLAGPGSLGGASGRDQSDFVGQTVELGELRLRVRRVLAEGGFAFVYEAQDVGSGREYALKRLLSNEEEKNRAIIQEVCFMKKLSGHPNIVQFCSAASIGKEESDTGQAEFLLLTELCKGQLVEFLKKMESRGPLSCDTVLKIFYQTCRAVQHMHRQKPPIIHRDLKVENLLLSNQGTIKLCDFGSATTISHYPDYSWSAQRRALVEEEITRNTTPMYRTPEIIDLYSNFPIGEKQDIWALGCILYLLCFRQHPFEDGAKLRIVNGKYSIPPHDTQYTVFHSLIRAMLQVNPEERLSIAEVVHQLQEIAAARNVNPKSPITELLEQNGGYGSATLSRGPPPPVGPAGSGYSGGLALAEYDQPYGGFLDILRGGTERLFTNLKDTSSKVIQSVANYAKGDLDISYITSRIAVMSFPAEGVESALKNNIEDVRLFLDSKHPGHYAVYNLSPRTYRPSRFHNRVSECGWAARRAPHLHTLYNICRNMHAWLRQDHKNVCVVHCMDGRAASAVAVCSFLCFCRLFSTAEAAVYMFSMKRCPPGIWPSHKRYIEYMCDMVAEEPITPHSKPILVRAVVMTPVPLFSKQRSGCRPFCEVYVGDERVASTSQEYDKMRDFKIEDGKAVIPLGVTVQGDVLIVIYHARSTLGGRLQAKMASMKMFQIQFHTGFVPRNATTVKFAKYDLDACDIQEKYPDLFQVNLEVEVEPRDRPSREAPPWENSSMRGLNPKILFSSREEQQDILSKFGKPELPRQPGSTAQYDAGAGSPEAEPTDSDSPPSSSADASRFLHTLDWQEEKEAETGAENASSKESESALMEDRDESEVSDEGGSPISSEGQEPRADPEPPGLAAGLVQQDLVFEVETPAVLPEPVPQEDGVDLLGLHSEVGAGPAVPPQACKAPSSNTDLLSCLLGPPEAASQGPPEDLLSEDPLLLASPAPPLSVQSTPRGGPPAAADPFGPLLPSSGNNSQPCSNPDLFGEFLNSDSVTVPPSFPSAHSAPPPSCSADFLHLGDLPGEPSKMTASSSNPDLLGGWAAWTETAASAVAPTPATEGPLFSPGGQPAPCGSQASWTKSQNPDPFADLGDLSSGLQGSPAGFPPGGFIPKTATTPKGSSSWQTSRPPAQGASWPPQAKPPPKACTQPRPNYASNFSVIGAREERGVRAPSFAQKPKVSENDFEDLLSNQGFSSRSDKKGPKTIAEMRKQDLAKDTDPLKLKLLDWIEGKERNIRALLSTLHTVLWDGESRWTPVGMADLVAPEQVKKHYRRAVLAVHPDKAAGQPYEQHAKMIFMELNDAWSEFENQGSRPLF
The assay can be described thus: nanoBRET cellular target engagement. The format is cell-based.

Assay [2] addresses T2, SLK (Homo sapiens, UniProt Q9H2G2). In words: TR-FRET binding displacement assay. In general terms: Time-resolved FRET reads energy transfer from a long-lived donor to a nearby acceptor.
Assay [3] addresses T3, GAK (Homo sapiens, UniProt O14976).
T3 sequence (O14976 12-347 limits assumed): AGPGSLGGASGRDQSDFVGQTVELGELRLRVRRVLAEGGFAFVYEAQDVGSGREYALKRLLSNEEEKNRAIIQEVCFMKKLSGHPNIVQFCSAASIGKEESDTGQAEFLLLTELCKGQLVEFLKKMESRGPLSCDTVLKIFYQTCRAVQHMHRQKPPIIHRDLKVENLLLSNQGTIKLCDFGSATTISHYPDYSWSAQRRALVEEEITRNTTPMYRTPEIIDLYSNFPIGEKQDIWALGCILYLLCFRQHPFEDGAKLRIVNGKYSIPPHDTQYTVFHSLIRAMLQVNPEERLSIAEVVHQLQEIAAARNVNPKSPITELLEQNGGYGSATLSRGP
In words: TR-FRET binding displacement assay.

The target in assay [4] is T4, STK10 (Homo sapiens, UniProt O94804). In words: TR-FRET binding displacement assay.
T4 sequence (O94804 36-294 limits assumed): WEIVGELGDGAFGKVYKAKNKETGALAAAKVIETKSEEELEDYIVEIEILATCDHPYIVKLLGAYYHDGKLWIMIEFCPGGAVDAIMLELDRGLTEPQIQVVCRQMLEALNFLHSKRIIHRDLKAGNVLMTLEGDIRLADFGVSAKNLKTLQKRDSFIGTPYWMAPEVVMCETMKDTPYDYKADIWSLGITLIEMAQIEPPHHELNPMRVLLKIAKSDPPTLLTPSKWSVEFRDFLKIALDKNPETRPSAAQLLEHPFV
Assay [5] deals with T1, full length GAK protein N-terminally fused with NanoLuc luciferase. In words: cell-based. Further details: species or system HEK293T.
For assay [6] the target is unchanged. The assay can be described thus: cell-based. Further details: species or system HEK293T. The source holds these as a separate data set.
Assay [7] addresses T2, SLK. The assay can be described thus: biochemical.
The target of assay [8] is T4, STK10. In words: biochemical.
Where [9] appears, read: ATP site tracer displacement, 16-point dose response.

T2 sequence (Q9H2G2 34-292): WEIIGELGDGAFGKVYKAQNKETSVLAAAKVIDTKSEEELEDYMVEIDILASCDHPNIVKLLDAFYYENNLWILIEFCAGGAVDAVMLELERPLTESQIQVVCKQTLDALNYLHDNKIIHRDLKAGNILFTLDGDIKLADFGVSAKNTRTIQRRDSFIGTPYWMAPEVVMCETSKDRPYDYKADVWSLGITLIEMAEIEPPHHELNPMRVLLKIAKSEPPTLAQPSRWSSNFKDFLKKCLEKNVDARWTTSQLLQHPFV

In assay [1], `COc1cc2ncnc(Nc3ccc(F)c(Cl)c3)c2cc1NC(=O)/C=C/CN1CCCCC1` [Dacomitinib] yielded an IC50 of 49 nM. In addition, the Ki in assay [2] was found to be 1100 nM; in assay [3], 7 nM; in assay [4], 590 nM.

As to `COc1cc2ncnc(Nc3ccc(F)c(Cl)c3)c2cc1OCCCN1CCOCC1` [Gefitinib], in assay [4], the Ki is 340 nM.

Compound `CCOc1cc2ncc(C#N)c(Nc3ccc(OCc4ccccn4)c(Cl)c3)c2cc1NC(=O)/C=C/CN(C)C` [Neratinib] displayed an IC50 in assay [1] of 2300 nM. In assay [3], the Ki was 290 nM.

As to `CCOc1cc2ncc(C#N)c(Nc3ccc(F)c(Cl)c3)c2cc1NC(=O)/C=C/CN(C)C` [Pelitinib], the IC50 in assay [1] is 12 nM. Further, in assay [2], the affinity, expressed as Ki, was 280 nM.

Regarding `C#Cc1cccc(Nc2ccnc3cc(OCCOC)c(OCCOC)cc23)c1` [compound 1, erlotinib quinoline], the IC50 in assay [1] (HEK293T cells, tracer displacement, n=[…] mean) was 4200 nM. Besides, the Ki in assay [2] worked out at 1200 nM; in assay [3], 100 nM; in assay [4] it was 720 nM.

On to `COc1cc(Nc2ccnc3ccc(Br)cc23)cc(OC)c1OC` [compound 2, SGC-GAK-1], for which the Ki in assay [2] was found to be 34000 nM; in assay [4], 4600 nM.

In assay [1], `COc1cc2nccc(Nc3cc(OC)c(OC)c(OC)c3)c2cc1OC` [compound 3, 3] yielded an IC50 of 26 nM. The Ki stood at 7100 nM in assay [2] and 1100 nM in assay [4].

For `COc1cc(Nc2ccnc3ccccc23)cc(OC)c1OC` [compound 7, 7], in assay [1], the IC50 stood at 730 nM. Also, the Ki is over 55000 nM in assay [2], 40 nM in assay [3] (setting [9]) and 27800 nM in assay [4].

Turning to `COc1cc(Nc2ccnc3ccc(F)cc23)cc(OC)c1OC` [compound 8, 8], the figures for the Ki in assay [2] and in assay [4] were 5100 nM and 45900 nM, respectively.

`COc1cc(Nc2ccnc3cc(F)c(F)cc23)cc(OC)c1OC` [compound 9, 6,7-difluoro-N-(3,4,5-trimethoxyphenyl)quinolin-4-amine] came in with an IC50 in assay [1] of 140 nM. Also, the Ki in assay [2] turned out to be 26000 nM; in assay [3], 6.9 nM; in assay [4], 2700 nM.

In assay [1], `COc1cc(Nc2ccnc3ccc(Cl)cc23)cc(OC)c1OC` [compound 10, 10] had a half-maximal inhibitory concentration (IC50) of 210 nM. The Ki in assay [2] amounted to 11000 nM; in assay [3], 0.68 nM; in assay [4] it was 1000 nM.

In turn, `COc1cc(Nc2ccnc3ccc(I)cc23)cc(OC)c1OC` [compound 11, 11] gave an IC50 in assay [1] of 110 nM. The inhibition constant Ki stood at 5800 nM in assay [2], 3.8 nM in assay [3] and 24300 nM in assay [4].

On to `COc1cc(Nc2ccnc3ccc(C(F)(F)F)cc23)cc(OC)c1OC` [compound 12, 12], for which the Ki was 33000 nM in assay [2] and 4600 nM in assay [4].

For `COc1cc(Nc2ccnc3ccc(S(C)(=O)=O)cc23)cc(OC)c1OC` [compound 15, 15], the Ki was found to be 23000 nM in assay [2] and 2400 nM in assay [4].

In the case of `COc1cc(Nc2ccnc3cc(F)ccc23)cc(OC)c1OC` [compound 16, 16], the Ki stood at 17000 nM in assay [2] and 1600 nM in assay [4].

On to `COc1cc(Nc2ncnc3ccccc23)cc(OC)c1OC` [compound 23, 23], for which the concentration for half-maximal inhibition (IC50) in assay [5] is 4600 nM.

As to `COc1cc(Nc2ncnc3ccc(C)cc23)cc(OC)c1OC` [compound 24, 24], in assay [5], the IC50 was determined as 2100 nM.

In assay [5], `COc1cc(Nc2ncnc3ccc(F)cc23)cc(OC)c1OC` [compound 25, 25] returned an IC50 of 3600 nM.

Take `COc1cc(Nc2ncnc3cc(F)c(F)cc23)cc(OC)c1OC` [compound 26, 26]: the IC50 in assay [5] was over 5000 nM.

Compound `COc1cc(Nc2ncnc3ccc(Cl)cc23)cc(OC)c1OC` [compound 27, 27] yielded a concentration for half-maximal inhibition (IC50) in assay [5] of 2400 nM.

On to `COc1cc(Nc2ncnc3ccc(Br)cc23)cc(OC)c1OC` [compound 28, 28], for which 1800 nM corresponded to half-maximal inhibition in assay [5] (IC50).

For the compound `COc1cc(Nc2ncnc3ccc(I)cc23)cc(OC)c1OC` [compound 29, 29], in assay [5], the half-inhibitory concentration (IC50) is 890 nM.

Regarding `COc1cc(Nc2ncnc3ccc(C(F)(F)F)cc23)cc(OC)c1OC` [compound 30, 30], the concentration for half-maximal inhibition (IC50) in assay [5] is 4500 nM.

In assay [5], `COc1cc(Nc2ncnc3cc(F)ccc23)cc(OC)c1OC` [compound 31, 31] came in with an IC50 of over 5000 nM.

`COc1cc(Nc2ncnc3cc(Cl)ccc23)cc(OC)c1OC` [compound 32, 32] showed an IC50 in assay [5] of 3200 nM.

With `COc1cc(Nc2ncnc3cc(Br)ccc23)cc(OC)c1OC` [compound 33, 33], the IC50 in assay [5] worked out at 4200 nM.

`COc1cc(Nc2ncnc3cc(I)ccc23)cc(OC)c1OC` [compound 34, 34] yielded an IC50 in assay [5] of 2400 nM.

As to `COc1cc(Nc2ncnc3cc(C(F)(F)F)ccc23)cc(OC)c1OC` [compound 35, 35], in assay [5], the IC50 is over 5000 nM.

In the case of `COc1cc(Nc2ncnc3cc(C#N)ccc23)cc(OC)c1OC` [compound 36, 4-((3,4,5-trimethoxyphenyl)amino)quinazoline-7-carbonitrile], in assay [5], the IC50 was over 5000 nM. The compound further returned a Ki in assay [3] of 210 nM.

`COc1cc(Nc2ncnc3ccc(C#N)cc23)cc(OC)c1OC` [compound 37, 37] gave an IC50 in assay [5] of over 5000 nM.

With `COc1cc(Nc2ncnc3ccc(S(C)(=O)=O)cc23)cc(OC)c1OC` [compound 38, 38], the IC50 in assay [5] is over 5000 nM.

In turn, `COc1ccc2ncnc(Nc3cc(OC)c(OC)c(OC)c3)c2c1` [compound 39, 39] returned an IC50 in assay [5] of 3400 nM.

For the compound `COc1ccc2c(Nc3cc(OC)c(OC)c(OC)c3)ncnc2c1` [compound 41, 41], in assay [5], inhibition was half-maximal at 1600 nM (IC50).

Regarding `COCCOc1cc2ncnc(Nc3cc(OC)c(OC)c(OC)c3)c2cc1OCCOC` [compound 42, 42], it took 3000 nM to reach half-maximal inhibition in assay [5] (IC50).

Consider `C#Cc1cccc(Nc2ncnc3cc(Cl)ccc23)c1` [compound 63, 63], for which the 50% inhibitory concentration (IC50) in assay [6] was over 5000 nM. Further, the Ki in assay [7] amounted to 360 nM; in assay [8], 440 nM.

`C#Cc1cccc(Nc2ncnc3ccc(S(C)(=O)=O)cc23)c1` [compound 69, N-(3-ethynylphenyl)-6-(methylsulfonyl)quinazolin-4-amine]: the IC50 in assay [6] is over 5000 nM. For the same compound, the Ki in assay [3] worked out at 420 nM; in assay [7], 1300 nM; in assay [8], 1300 nM.

Turning to `C#Cc1cccc(Nc2ncnc3cc(OC)c(OC)cc23)c1` [compound 71, 71], the Ki in assay [2] came out at 140 nM; in assay [3], 1 nM; in assay [4] it was 120 nM.

With `C#Cc1cccc(Nc2ncnc3cc(OC)c(OC)cc23)c1` [compound 71], half-maximal inhibition in assay [6] (IC50) was put at 79 nM.

In the case of `C#Cc1cccc(Nc2ncnc3cc4c(cc23)OCCO4)c1` [compound 74, 74], in assay [6], it took 3200 nM to reach half-maximal inhibition (IC50). Further, the Ki came to 3600 nM in assay [7] and 1700 nM in assay [8].

`C#Cc1cccc(Nc2c(C#N)cnc3cc(OC)c(OC)cc23)c1` [compound 82, 82]: in assay [1] (HEK293T cells, tracer displacement), the IC50 stood at 40 nM. This compound had an inhibition constant (Ki) in assay [3] (setting [9]) of 0.32 nM.

The IC50 is the point on the concentration scale where inhibition reaches its midpoint. In general, Ki refers to the equilibrium dissociation constant of an inhibitor or competing ligand from its target. A high value points to lower affinity.

The values above are taken from article doi:10.1101/757047v1 (biorxiv, 2019).
